# Patent US20030157176A1, “Antimicrobially treated material and methods of preventing coloring thereof” (priority 2001, published 2003)
# Test: Silver ion concentration ranges in the water system
# Details: dissociated in water system
# Text: A basic idea of the present invention for preventing coloring of silver zeolite is to make an purposeful use of the concentration rages of silver ions dissociated from silver zeolite in water system, i.e., a concentration range A which is effective for antimicrobial action and a concentration range B which is responsible for coloring.
# Namely, the concentration range A which is effective for antimicrobial action is more than 1 ppm that is the antimicrobially effective concentration of silver ions while the concentration range B which is responsible for coloring is 40 ppm or more, so that a concentration range C for silver ions dissociated in the water system, which is effective for antimicrobial action without causing coloring, exists between 1 ppm and 40 ppm (preferably between 5 ppm and 30 ppm).
# The concentration range of silver ions dissociated from 1000 ppm silver zeolite in the water system varies from 40 ppm to 600 ppm. This variation is probably due to a decrease in the silver ion concentration caused by generation of silver oxide or adsorption of silver ions in the water system, or is under the influence of the degree of dissociation of silver ions by metal salts, surfactants, and temperature. […]
substance,measurement,value
silver ions,antimicrobially effective concentration of silver ions (range A),more than 1 ppm
same,silver ion concentration responsible for coloring (range B),≥ 40 ppm
